Holding throughout (type): functional
Holding throughout (details): Homo sapiens

Assay [1] has as its system HUVEC. The assay is described as follows: Inhibitory activity in HUVEC tube formation assay at 100 uM.
The test system of assay [2] is HUVEC. Kind of assay: Inhibitory activity in HUVEC tube formation assay at 30 uM.
The subject of assay [3] is HUVEC. The assay is described as follows: Inhibitory activity in HUVEC tube formation assay at 10 uM.

Take `O=C1CCC(N2C(=O)c3cccc([N+](=O)[O-])c3C2=O)C(=O)N1` (configuration not stated): at 100 µM the inhibition in the assay on HUVEC [1] was 32%.
As to `CC(C)c1cccc(C(C)C)c1N1C(=O)c2ccc(O)cc2C1=O`, the inhibition (usually the share of the control response that was lost under treatment) at 100 µM in the assay on HUVEC [1] worked out at 59%. Also, the inhibition at 30 µM in the assay with HUVEC [2] stood at 41%. The compound also displayed an inhibition at 10 µM in the assay with HUVEC [3] of 8%.
For the compound `Nc1cccc2c1CN(C1CCC(=O)NC1=O)C2=O` (configuration not stated) [LENALIDOMIDE], the inhibition at 100 µM in the assay on HUVEC [1] turned out to be 32%.
`O=C1CCC(N2C(=O)c3ccccc3C2=O)C(=O)N1` (configuration not stated) [THALIDOMIDE] yielded an inhibition at 100 µM with HUVEC [1] of 26%.
The same measure, in the same setting: to `Nc1cccc2c1C(=O)N(C1CCC(=O)NC1=O)C2=O` (configuration not stated) [POMALIDOMIDE] belongs 21%.

The values above are taken from ChEMBL document CHEMBL1141962, “Angiogenesis inhibitors derived from thalidomide” (2005).
